The values that follow come from patent US5272155A, “(+)-2-methylpiperidine as modulator of cholinergic systems” (Abbott Laboratories, priority 1991, dated 1993).

The test system of one data set is rat brain receptor sites. Particulars: Sloan et al. 1985; cited from earlier work.
Data set [1] can be described thus: Mean arterial pressure (MAP) in rats, iv administration. Particulars: mean (SEM), (+) N = 5 rats, (-) N = 3 rats. Type of data set: in vivo, rat. Here is the method:
(§1) Methods for surgical preparations of rats for electrical stimulation of brain and measurement of cortical CBF are detailed by Linville and Arneric (1991).
(§2) Intravenous (iv) administration of (+) 2-methylpiperidine ((+)2-MP) and (-)2-MP (0.1-3.0 mg/kg) were examined for their effect on mean arterial pressure (MAP), resting CBF and increases in cortical CBF elicited by electrically stimulating the BF (.perspectiveto.25 Hz; 100 uA; 10 sec. train).

The subject of data set [2] is nicotinic receptor. Description: Cortical CBF response elicited by electrical stimulation of the basal forebrain (BF) in rats. The data set is classed as in vivo, rat. Particulars: iv; for BF-Elicited CBF Response, % of Resting Cortical CBF: mean (SEM), (+) N = 5 rats, (-) N = 3 rats. As for the experimental part: as §1, §2
In another data set the test system is mouse. Description: (-)Nicotine induced mouse lethality after pretreatment. The data set is classed as in vivo. Particulars: pretreatment 10.0 mg/kg.
The next data set concerns male CD1 mice. Description: Acute lethality in mice within 24 hours. The data set is classed as in vivo, mouse. Particulars: i.p.; for Deaths in 24 hours: mandelic acid salt, deaths/animals. An excerpt:
Compounds were given as the respective mandelic acid salts.

Data set [3] deals with nicotinic receptor. Description: Resting cortical cerebral blood flow (CBF) in rats, iv administration. Type of data set: in vivo, rat. Particulars: for Resting Cortical CBF, % of Resting CONTROL: mean (SEM), (+) N = 5 rats, (-) N = 3 rats. As for the experimental part:
as §1, §2

With `CC1CCCCN1` (racemic) [(±)-2-methylpiperidine, reference compound], the “enhancement of the binding of nicotine / nicotinic ligands” value in the data set on rat brain receptor sites was “high degree of specificity in enhancing the binding of nicotine in the rat brain”.

As for `CC1CCCCN1` (single isomer, unassigned; (-)) [(-)2-methylpiperidine, reference compound], the “Mean Arterial Pressure (MAP)” value is recorded as 78 (4) mmHg in data set [1] (0.1 mg/kg, dose 0: (+) 76 (3), (-) 90 (6)); 83 (4) mmHg in data set [1] (0.3 mg/kg); 80 (8) mmHg in data set [1] (1.0 mg/kg); 73 (4) mmHg in data set [1] (3.0 mg/kg). Moreover, the “BF-Elicited CBF Response, % of Resting Cortical CBF” value is listed as 113 (30) % in the data set with nicotinic receptor [2] (0.1 mg/kg, dose 0: (+) 153 (11), (-) 130 (8)); 101 (28) % in the data set on nicotinic receptor [2] (0.3 mg/kg); 88 (26) % with nicotinic receptor [2] (1.0 mg/kg); 81 (30) % in the data set on nicotinic receptor [2] (3.0 mg/kg). In the data set on nicotinic receptor [2] (0.1-3.0 mg/kg, result in words), the “effect on BF-elicited CBF response” value is reported as “no ability to enhance”. Further, the DEATHS/24 hours is listed as 0/6 in the data set with mouse ((-)nicotine 3 mg/kg), 0/6 in the data set on mouse ((-)nicotine 6 mg/kg) and 4/6 with mouse ((-)nicotine 9 mg/kg). In addition, the “Deaths in 24 hours” value with male CD1 mice (30 mg/kg) and in the data set with male CD1 mice (100 mg/kg) was 0/5 throughout. Further, in the data set with male CD1 mice (30 and 100 mg/kg), the tolerability result was “well tolerated by male CD1 mice, and did not cause any deaths within 24 hours”. Moreover, the “Resting Cortical CBF, % of Resting CONTROL” value with nicotinic receptor [3] (0.1 mg/kg, dose 0: (+) 100 (10), (-) 100 (13)) is given as 99 (32) %; in the data set on nicotinic receptor [3] (0.3 mg/kg), 86 (29) %; in the data set on nicotinic receptor [3] (1.0 mg/kg), 74 (27) %; with nicotinic receptor [3] (3.0 mg/kg), 70 (30) %. Besides, the “effect on resting CBF” value with nicotinic receptor [3] (0.1-3.0 mg/kg, result in words) is given as “no ability to enhance”.
